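96-well plates; 48 h exposure; 5 concentrations. Endpoints by linear interpolation between flanking doses. Not reached: highest tested concentration assigned. The concentration for 50% growth inhibition is given as GI50.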 The source made the active and inactive calls. No stated cut-off is given here; in the data, active = GI50 up to about 1.1 µM and inactive = higher.
What was measured:
Assay in all cases: growth of human tumour cells (NCI), 48 h
[1] = system: 786-0
[2] = system: BT-549
[3] = system: DU-145
[4] = system: HCT-116
[5] = system: HCT-15
[6] = system: HL-60
[7] = system: HOP-92
[8] = system: LOX IMVI
[9] = system: MCF7
[10] = system: MDA-N
[11] = system: MOLT-4
[12] = system: NCI-H522
[13] = system: OVCAR-3
[14] = system: OVCAR-5
[15] = system: SF-295
[16] = system: SK-OV-3
[17] = system: SNB-75
[18] = system: UACC-62
[19] = system: UO-31
[20] = system: Malme-3M

SMILES | GI50 [1] | GI50 [2] | GI50 [3] | GI50 [4] | GI50 [5] | GI50 [6] | GI50 [7] | GI50 [8] | GI50 [9] | GI50 [10] | GI50 [11] | GI50 [12] | GI50 [13] | GI50 [14] | GI50 [15] | GI50 [16] | GI50 [17] | GI50 [18] | GI50 [19] | GI50 [20]
Cc1sc2nc3n(sc4nc5sc(C)c(C)c5c(=O)n43)c(=O)c2c1C | > 100 µM (inactive) | 70.5 µM (inactive) | > 100 µM (inactive) | > 100 µM (inactive) | > 100 µM | 40.3 µM (inactive) | > 100 µM (inactive) | > 100 µM (inactive) | 82.4 µM (inactive) | > 100 µM (inactive) | 23 µM (inactive) | 16.4 µM (inactive) | > 100 µM (inactive) | > 100 µM (inactive) | > 100 µM (inactive) | > 100 µM (inactive) | 4.81 µM (inactive) | 33.2 µM (inactive) | > 100 µM (inactive) | –
O=C1CN(c2cccc(Cl)c2)C(=O)CN1NCNN1CC(=O)N(c2cccc(Cl)c2)CC1=O | > 100 µM (inactive) | > 100 µM (inactive) | > 100 µM (inactive) | > 100 µM (inactive) | > 100 µM | > 100 µM (inactive) | > 100 µM (inactive) | – | > 100 µM (inactive) | > 100 µM (inactive) | > 100 µM (inactive) | > 100 µM (inactive) | > 100 µM (inactive) | > 100 µM (inactive) | > 100 µM (inactive) | > 100 µM (inactive) | 38.3 µM (inactive) | > 100 µM (inactive) | > 100 µM (inactive) | > 100 µM (inactive)
CCOC(=O)/C=C/[C@H](O[Si](c1ccccc1)(c1ccccc1)c1ccccc1)C(C)(C)C | > 31.6 µM (inactive) | > 10 µM (inactive) | > 31.6 µM (inactive) | 22.5 µM (inactive) | > 31.6 µM | > 100 µM (inactive) | > 31.6 µM (inactive) | > 31.6 µM (inactive) | > 31.6 µM (inactive) | > 31.6 µM (inactive) | 14.1 µM (inactive) | > 31.5 µM (inactive) | > 31.6 µM (inactive) | > 10 µM (inactive) | > 31.6 µM (inactive) | > 31.6 µM (inactive) | > 31.6 µM (inactive) | > 31.6 µM (inactive) | > 31.6 µM (inactive) | > 31.6 µM (inactive)
NC1=NN(c2ccccc2)C2(c3ccncc3C(=O)O)C1C(N)=NN2c1ccccc1 (stereo unspecified) | > 100 µM (inactive) | > 100 µM (inactive) | > 100 µM (inactive) | > 100 µM (inactive) | > 100 µM | > 100 µM (inactive) | > 100 µM (inactive) | > 100 µM (inactive) | > 100 µM (inactive) | > 100 µM (inactive) | > 100 µM (inactive) | > 100 µM (inactive) | > 100 µM (inactive) | > 100 µM (inactive) | > 100 µM (inactive) | > 100 µM (inactive) | > 100 µM (inactive) | > 100 µM (inactive) | > 100 µM (inactive) | > 100 µM (inactive)
COC(=O)C12CCC(C)(C)CC1C1=CCC3C4(C)CC(O)C(O)C(C)(C(=O)OC)C4CCC3(C)C1(CO)CC2 (stereo unspecified) | 10.2 µM (inactive) | 14.6 µM (inactive) | 15.5 µM (inactive) | 13.7 µM (inactive) | 14.5 µM | 7.52 µM (inactive) | 14.2 µM (inactive) | 14 µM (inactive) | 14.1 µM (inactive) | 13.3 µM (inactive) | 8.13 µM (inactive) | 14.9 µM (inactive) | 16.7 µM (inactive) | 17.9 µM (inactive) | 14.7 µM (inactive) | 16.9 µM (inactive) | 11.9 µM (inactive) | 14.3 µM (inactive) | – | –

Source: ChEMBL document CHEMBL1201862, “PubChem BioAssay data set” (2004)
